Test results from US20090253669A1, “Substituted Sulfonamide Compounds” (GRUENENTHAL GmbH, priority 2008, published 2009).

How the values were obtained:
[1] = molecular target: T1, human B1R receptor (hB1R) (Homo sapiens, UniProt P46663); experiment: FLIPR Ca2+ assay on hB1R-transfected CHO K1 cells, antagonistic action; assay type: cell-based; details: agonist Lys-Des-Arg9-bradykinin 0.5 nM, % of maximum achievable inhibition; for inhibition at 10 µM: CHO-K1, 10 μM test substance, read-out: hB1R [10 μM] % inhibition
T1 construct: host or cells: CHO K1 cells
T1 sequence (P46663 1-353): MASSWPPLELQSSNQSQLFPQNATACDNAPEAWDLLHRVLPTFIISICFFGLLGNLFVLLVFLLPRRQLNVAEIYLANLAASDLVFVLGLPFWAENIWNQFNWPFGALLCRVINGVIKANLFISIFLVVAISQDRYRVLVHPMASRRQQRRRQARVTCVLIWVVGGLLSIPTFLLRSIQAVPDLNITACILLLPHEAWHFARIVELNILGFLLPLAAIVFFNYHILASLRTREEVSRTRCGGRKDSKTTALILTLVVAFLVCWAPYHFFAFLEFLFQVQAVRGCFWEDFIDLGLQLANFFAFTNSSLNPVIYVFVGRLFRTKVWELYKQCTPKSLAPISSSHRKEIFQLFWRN

[2] = molecular target: T2, B1R receptor of the rat (rB1R) (Rattus norvegicus, UniProt P97583); experiment: FLIPR Ca2+ assay on rB1R-transfected CHO K1 cells, antagonistic action; assay type: cell-based; details: agonist Des-Arg9-bradykinin 100 nM, % of maximum achievable inhibition; for inhibition at 10 µM: CHO-K1, 10 μM test substance, read-out: rB1R [10 μM] % inhibition
T2 construct: host or cells: CHO K1 cells
T2 sequence (P97583 1-337): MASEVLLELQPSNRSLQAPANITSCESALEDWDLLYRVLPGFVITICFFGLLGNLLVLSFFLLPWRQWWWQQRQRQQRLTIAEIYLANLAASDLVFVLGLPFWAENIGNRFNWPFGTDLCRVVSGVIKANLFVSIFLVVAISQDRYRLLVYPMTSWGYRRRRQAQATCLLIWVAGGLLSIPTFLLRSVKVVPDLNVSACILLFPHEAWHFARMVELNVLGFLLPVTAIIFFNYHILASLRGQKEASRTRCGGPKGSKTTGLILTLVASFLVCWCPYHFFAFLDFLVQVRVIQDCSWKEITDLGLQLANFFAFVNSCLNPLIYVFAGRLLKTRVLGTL

Row | SMILES | inhibition at 10 µM [1] [%] | inhibition at 10 µM [2] [%] | hB1R [10 μM] % inhibition ([1]; 10 μM test substance) [%] | rB1R [10 μM] % inhibition ([2]; 10 μM test substance) [%]
1 | COc1cc(C)c(S(=O)(=O)N(C)CCOCC(=O)NC2CCC(Cc3ccccc3)(N3CCCC3)CC2)c(C)c1 (centres unmarked) [Compound 170, N-(4-benzyl-4-(pyrrolidin-1-yl)cyclohexyl)-2-(2-(4-methoxy-N,2,6-trimethylphenylsulfonamido)ethoxy)acetamide] | 104 | 84 | – | –
2 | COc1cc(C)c(S(=O)(=O)N2CCCCC2COCC(=O)N2CCC(c3cccc(F)c3)(N3CCN(C)CC3)CC2)c(C)c1 (centres unmarked) [Compound 67, 1-(4-(3-fluorophenyl)-4-(4-methylpiperazin-1-yl)piperidin-1-yl)-2-((1-(4-methoxy-2,6-dimethylphenylsulfonyl)piperidin-2-yl)methoxy)ethanone] | – | – | 101 | 100
3 | COc1cc(C)c(S(=O)(=O)N(C)CCOCC(=O)NC2CCC(CCc3ccccc3)(N(C)C)CC2)c(C)c1C (centres unmarked) [Compound 24, N-(4-(dimethylamino)-4-phenethylcyclohexyl)-2-(2-(4-methoxy-N,2,3,6-tetramethylphenylsulfonamido)ethoxy)acetamide] | 97 | 65 | – | –
4 | CN(CCC1CCC(c2ccccc2)(N2CCCC2)CC1)C(=O)CC1CCCCN1S(=O)(=O)c1cccc(C(F)(F)F)c1 (centres unmarked) [Compound 106, N-methyl-N-(2-(4-phenyl-4-(pyrrolidin-1-yl)cyclohexyl)ethyl)-2-(1-(3-(trifluoromethyl)phenylsulfonyl)piperidin-2-yl)acetamide] | 101 | 79 | – | –
5 | Cc1cc(S(=O)(=O)N2CCCCC2CCC(=O)N(C)CC2CCC(Cc3ccccc3)(N3CCCC3)CC2)c(C)cc1Cl (centres unmarked) [Compound 129, N-((4-benzyl-4-(pyrrolidin-1-yl)cyclohexyl)methyl)-3-(1-(4-chloro-2,5-dimethylphenylsulfonyl)piperidin-2-yl)-N-methylpropanamide] | 104 | 52 | – | –
6 | COc1cc(C)c(S(=O)(=O)N2CCCCC2COCC(=O)N2CCC(c3ccccc3)(N(C)C)CC2)c(C)c1 (centres unmarked) [Compound 202, 1-(4-(dimethylamino)-4-phenylpiperidin-1-yl)-2-((1-(4-methoxy-2,6-dimethylphenylsulfonyl)piperidin-2-yl)methoxy)ethanone] | 100 | 103 | – | –
7 | CN1CCN(C2(c3cccc(F)c3)CCN(C(=O)COCC3CCc4ccccc4N3S(=O)(=O)c3ccc4ccccc4c3)CC2)CC1 (centres unmarked) [Compound 228, 1-(4-(3-Fluorophenyl)-4-(4-methylpiperazin-1-yl)piperidin-1-yl)-2-((1-(naphthalen-2-ylsulfonyl)-1,2,3,4-tetrahydroquinolin-2-yl)methoxy)ethanone] | 100 | 101 | – | –
8 | COc1cc(C)c(S(=O)(=O)N(C)CCOCC(=O)N2CCC(c3ccccc3)(N(C)C)CC2)c(C)c1 [Compound 54, N-(2-(2-(4-(dimethylamino)-4-phenylpiperidin-1-yl)-2-oxoethoxy)ethyl)-4-methoxy-N,2,6-trimethylbenzenesulfonamide] | 103 | 100 | – | –
9 | CN(C)C1(CCc2ccccc2)CCN(C(=O)CC2CCCCN2S(=O)(=O)c2cccc(C(F)(F)F)c2)CC1 (centres unmarked) [Compound 71, 1-(4-(dimethylamino)-4-phenethylpiperidin-1-yl)-2-(1-(3-(trifluoromethyl)phenylsulfonyl)piperidin-2-yl)ethanone] | 92 | 99 | – | –
10 | COc1cc(C)c(S(=O)(=O)N2CCCCC2COCC(=O)N(C)CC2CCC(Cc3ccccc3)(N3CCCC3)CC2)c(C)c1 (centres unmarked) [Compound 78, N-((4-benzyl-4-(pyrrolidin-1-yl)cyclohexyl)methyl)-2-((1-(4-methoxy-2,6-dimethylphenylsulfonyl)piperidin-2-yl)methoxy)-N-methylacetamide] | 101 | 99 | – | –
11 | COc1cc(C)c(S(=O)(=O)N(C)CCOCC(=O)NC2CCC(Cc3ccccc3)(N3CCCCC3)CC2)c(C)c1 (centres unmarked) [Compound 17, N-(4-benzyl-4-(piperidin-1-yl)cyclohexyl)-2-(2-(4-methoxy-N,2,6-trimethylphenylsulfonamido)ethoxy)acetamide] | 86 | 75 | – | –
12 | COc1cc(C)c(S(=O)(=O)N2CCCCC2COCC(=O)NC2CCC(Cc3ccccc3)(N3CCCC3)CC2)c(C)c1 (centres unmarked) [Compound 149, N-(4-benzyl-4-(pyrrolidin-1-yl)cyclohexyl)-2-((1-(4-methoxy-2,6-dimethylphenylsulfonyl)piperidin-2-yl)methoxy)acetamide] | 103 | 105 | – | –
13 | COc1cc(C)c(S(=O)(=O)N2CCC(OCC(=O)NC3CCC(c4ccccc4)(N4CCCC4)CC3)C2)c(C)c1 (centres unmarked) [Compound 153, 2-(1-(4-methoxy-2,6-dimethylphenylsulfonyl)pyrrolidin-3-yloxy)-N-(4-phenyl-4-(pyrrolidin-1-yl)cyclohexyl)acetamide] | 97 | 102 | – | –
14 | O=C(CC1c2ccccc2CCN1S(=O)(=O)c1ccc(Cl)c(Cl)c1)NC1CCC(Cc2ccccc2)(N2CCCCC2)CC1 (centres unmarked) [Compound 15, N-(4-benzyl-4-(piperidin-1-yl)cyclohexyl)-2-(2-(3,4-dichlorophenylsulfonyl)-1,2,3,4-tetrahydroisoquinolin-1-yl)acetamide] | 55 | 82 | – | –
15 | COc1cc(C)c(S(=O)(=O)N(C)CCOCC(=O)NC2CCC(Cc3ccccc3)(N3CCOCC3)CC2)c(C)c1 (centres unmarked) [Compound 171, N-(4-benzyl-4-morpholinocyclohexyl)-2-(2-(4-methoxy-N,2,6-trimethylphenylsulfonamido)ethoxy)acetamide] | 75 | 82 | – | –
16 | COc1cc(C)c(S(=O)(=O)N(C)CCOCC(=O)NC2CCC(c3ccccc3)(N3CCCCC3)CC2)c(C)c1C (centres unmarked) [Compound 28, 2-(2-(4-methoxy-N,2,3,6-tetramethylphenylsulfonamido)ethoxy)-N-(4-phenyl-4-(piperidin-1-yl)cyclohexyl)acetamide] | 60 | 48 | – | –
17 | O=C(COC1CCCN(S(=O)(=O)c2c(Cl)cc(Cl)cc2Cl)C1)NC1CCC(c2ccccc2)(N2CCCC2)CC1 (centres unmarked) [Compound 194, N-(4-phenyl-4-(pyrrolidin-1-yl)cyclohexyl)-2-(1-(2,4,6-trichlorophenylsulfonyl)piperidin-3-yloxy)acetamide] | 96 | 33 | – | –
18 | CN(CCC1CCC(Cc2ccccc2)(N2CCCC2)CC1)C(=O)COCC1CCc2ccccc2N1S(=O)(=O)c1ccc(Cl)c(Cl)c1 (centres unmarked) [Compound 104, N-(2-(4-benzyl-4-(pyrrolidin-1-yl)cyclohexyl)ethyl)-2-((1-(3,4-dichlorophenylsulfonyl)-1,2,3,4-tetrahydroquinolin-2-yl)methoxy)-N-methylacetamide] | 60 | 82 | – | –
19 | CN(CCOCC(=O)NC1CCC(Cc2ccccc2)(N2CCCC2)CC1)S(=O)(=O)c1c(Cl)cc(Cl)cc1Cl (centres unmarked) [Compound 189, N-(4-benzyl-4-(pyrrolidin-1-yl)cyclohexyl)-2-(2-(2,4,6-trichloro-N-methylphenylsulfonamido)ethoxy)acetamide] | 65 | 60 | – | –
